# Experiments:
# Lactococcus lactis SB50 [1] = assay: Flask culture of Lactococcus lactis SB50, optical density; assay type: cell-based
# Description: (§1) Sample Preparation • i) Flask culture: dissolution of the powders at 200 g/l then filtration of the supernatant and addition to the flasks. • ii) Bioreactor culture: direct addition to the reactors in a proportion of 1 g/l of powder before autoclaving.
# Culture Conditions • i) Flask (100 ml, 0.5 and 11) culture:
# (§2) The strain used is a strain of Lactococcus lactis SB50.
# The tests were carried out overnight (16-18 h) at 30° C. with shaking at 180 rpm.
# The composition of the culture medium for the strain is the following: glucose (1%), maltose (0.1%), yeast extract (2%) and minerals.
# The culture conditions are the following: filling to 10% useful volume; a positive control with addition of hemin (hemoglobin of bovine origin) at 10 ppm final concentration is used.
# (§3) The HEMARINA samples (powders in solution) were added post-sterilization after centrifugation. • ii) Bioreactor (11 useful volume) culture:
# (§4) The optical density (OD) at 600 nm is measured for each culture.
# Lactococcus lactis SB50 [2] = assay: Bioreactor culture of Lactococcus lactis SB50 (OD, dry weight, NH4OH volume, viability); assay type: cell-based
# Description: as §1, §2, §3
# The tests were carried out overnight (15-16 h) at 30° C.
# The composition of the culture medium for the strain is identical to that of the flasks, with an addition of 0.01% antifoam.
# The culture conditions are the following: filling to 60% useful volume, pO2 regulated at 20% or 80% and pH regulated at 6.
# 1 g/l of powder are added directly to the culture medium before autoclaving.
# as §4
# [3] = overnight (15-16 h), 30° C., 1 g/l of powder
substance,measurement,setting,value
hemin,active concentration,Lactococcus lactis SB50 [1]; equivalent to that of hemin,approximately 0.25 ppm
same,OD at 600 nm,"Lactococcus lactis SB50 [1]; overnight (16-18 h), 30° C., 180 rpm, hemin 10 ppm final concentration",4.5
same,Dry weight,Lactococcus lactis SB50 [2]; [3],3.4 g/L
same,Viability,Lactococcus lactis SB50 [2]; [3],5.03E+09 CFU/ml
same,OD at 600 nm,"Lactococcus lactis SB50 [2]; overnight (15-16 h), 30° C., pH 6, 1 g/l of powder",10.9
same,Volume NH4OH (corresponding to production of lactic acid),"Lactococcus lactis SB50 [2]; pH regulated at 6, 1 g/l of powder",12.3 mL

# Reference: patent US10988730B2, “Sand worm lyophilisate and uses thereof” (HEMARINA, priority 2013, dated 2021)
